Assay results: publication PMC4066754 (2014)

How the values were obtained:
[1] = test system: template 8aaa:primer + downstream-binding oligonucleotide (DNA, duplex, 3'-amino-2',3'-dideoxynucleoside at primer 3' end) CTGGATTTCCTCAGAAACGTGCG/CGCACGT/TCTGAGGAAATCCA; test: inhibition of enzyme-free primer extension (MALDI-ToF kinetics); details: 400 mM NaCl, 80 mM MgCl2; 200 mM HEPES, pH 8.9, 20°C; competes with 7.2 mM TMP-OAt; calculated from Kinh
[2] = test system: template 8tat:primer, no downstream-binding oligonucleotide (DNA, duplex, 3'-amino-2',3'-dideoxynucleoside at primer 3' end) CTGGATTTCCTCAGTATCGTGCG/CGCACGA; test: as above; details: 400 mM NaCl, 80 mM MgCl2; 200 mM HEPES, pH 8.9, 20°C; competes with 7.2 mM TMP-OAt; calculated from Kinh
[3] = test system: hairpin 2a (DNA, hairpin, hexaethylene glycol (HEG) loop linker between 4 and 5) ATGCGCA; test: 1H NMR titration; details: 400 mM NaCl, 80 mM MgCl2; 200 mM phosphate in D2O, pH 8.9, 20°C, 0.5 mM hairpin
[4] = test system: hairpin 3a (DNA, hairpin, hexaethylene glycol (HEG) loop linker between 6 and 7) CTATGCGCA; test: 1H NMR titration; details: 400 mM NaCl, 80 mM MgCl2; 200 mM phosphate in D2O, pH 8.9, 20°C, 0.5 mM hairpin
[5] = test system: template 8cac:primer, no downstream-binding oligonucleotide (DNA, duplex, 3'-amino-2',3'-dideoxynucleoside at primer 3' end) CTGGATTTCCTCAGCACCGTGCG/CGCACGG; test: inhibition of enzyme-free primer extension (MALDI-ToF kinetics); details: 400 mM NaCl, 80 mM MgCl2; 200 mM HEPES, pH 8.9, 10°C; competes with 7.2 mM TMP-OAt; calculated from Kinh
[6] = test system: template 8gag:primer + downstream-binding oligonucleotide (DNA, duplex, 3'-amino-2',3'-dideoxynucleoside at primer 3' end) CTGGATTTCCTCAGGAGCGTGCG/CGCACGC/CCTGAGGAAATCCA; test: as above; details: 400 mM NaCl, 80 mM MgCl2; 200 mM HEPES, pH 8.9, 20°C; competes with 7.2 mM TMP-OAt; calculated from Kinh
[7] = test system: template 8tat:primer + downstream-binding oligonucleotide (DNA, duplex, 3'-amino-2',3'-dideoxynucleoside at primer 3' end) CTGGATTTCCTCAGTATCGTGCG/CGCACGA/ACTGAGGAAATCCA; test: as above; details: 400 mM NaCl, 80 mM MgCl2; 200 mM HEPES, pH 8.9, 20°C; competes with 7.2 mM TMP-OAt; calculated from Kinh
[8] = test system: hairpin 4a (DNA, hairpin, hexaethylene glycol (HEG) loop linker between 4 and 5) ACAGCTG; test: 1H NMR titration; details: 400 mM NaCl, 80 mM MgCl2; 200 mM phosphate in D2O, pH 8.9, 20°C, 0.5 mM hairpin
[9] = test system: template 8cac:primer + downstream-binding oligonucleotide (DNA, duplex, 3'-amino-2',3'-dideoxynucleoside at primer 3' end) CTGGATTTCCTCAGCACCGTGCG/CGCACGG/GCTGAGGAAATCCA; test: inhibition of enzyme-free primer extension (MALDI-ToF kinetics); details: 400 mM NaCl, 80 mM MgCl2; 200 mM HEPES, pH 8.9, 20°C; competes with 7.2 mM TMP-OAt; calculated from Kinh
[10] = test system: template 8tgt:primer + downstream-binding oligonucleotide (DNA, duplex, 3'-amino-2',3'-dideoxynucleoside at primer 3' end) CTGGATTTCCTCAGTGTCGTGCG/CGCACGA/ACTGAGGAAATCCA; test: as above; details: 400 mM NaCl, 80 mM MgCl2; 200 mM HEPES, pH 8.9, 20°C; competes with 3.6 mM dCMP-OAt; calculated from Kinh
[11] = test system: hairpin 2g (DNA, hairpin, hexaethylene glycol (HEG) loop linker between 4 and 5) GTGCGCA; test: 1H NMR titration; details: 400 mM NaCl, 80 mM MgCl2; 200 mM phosphate in D2O, pH 8.9, 20°C, 0.5 mM hairpin
[12] = test system: template 8ggg:primer + downstream-binding oligonucleotide (DNA, duplex, 3'-amino-2',3'-dideoxynucleoside at primer 3' end) CTGGATTTCCTCAGGGGCGTGCG/CGCACGC/CCTGAGGAAATCCA; test: inhibition of enzyme-free primer extension (MALDI-ToF kinetics); details: 400 mM NaCl, 80 mM MgCl2; 200 mM HEPES, pH 8.9, 20°C; competes with 3.6 mM dCMP-OAt; calculated from Kinh
[13] = test system: template 8cgc:primer, no downstream-binding oligonucleotide (DNA, duplex, 3'-amino-2',3'-dideoxynucleoside at primer 3' end) CTGGATTTCCTCAGCGCCGTGCG/CGCACGG; test: as above; details: 400 mM NaCl, 80 mM MgCl2; 200 mM HEPES, pH 8.9, 10°C; competes with 3.6 mM dCMP-OAt; calculated from Kinh
[14] = test system: template 8tgt:primer, no downstream-binding oligonucleotide (DNA, duplex, 3'-amino-2',3'-dideoxynucleoside at primer 3' end) CTGGATTTCCTCAGTGTCGTGCG/CGCACGA; test: as above; details: 400 mM NaCl, 80 mM MgCl2; 200 mM HEPES, pH 8.9, 20°C; competes with 3.6 mM dCMP-OAt; calculated from Kinh
[15] = test system: template 8aga:primer + downstream-binding oligonucleotide (DNA, duplex, 3'-amino-2',3'-dideoxynucleoside at primer 3' end) CTGGATTTCCTCAGAGACGTGCG/CGCACGT/TCTGAGGAAATCCA; test: as above; details: 400 mM NaCl, 80 mM MgCl2; 200 mM HEPES, pH 8.9, 20°C; competes with 3.6 mM dCMP-OAt; calculated from Kinh
[16] = test system: template 8cgc:primer + downstream-binding oligonucleotide (DNA, duplex, 3'-amino-2',3'-dideoxynucleoside at primer 3' end) CTGGATTTCCTCAGCGCCGTGCG/CGCACGG/GCTGAGGAAATCCA; test: as above; details: 400 mM NaCl, 80 mM MgCl2; 200 mM HEPES, pH 8.9, 20°C; competes with 3.6 mM dCMP-OAt; calculated from Kinh
[17] = test system: hairpin 4t (DNA, hairpin, hexaethylene glycol (HEG) loop linker between 4 and 5) TCAGCTG; test: 1H NMR titration; details: 400 mM NaCl, 80 mM MgCl2, 200 mM phosphate in D2O, pH 8.9, 20°C, 0.5 mM hairpin
[18] = test system: RNA hairpin 6c (RNA, hairpin, hexaethylene glycol (HEG) loop linker between 4 and 5) CCAGCUG; test: 1H NMR titration; details: 400 mM NaCl, 80 mM MgCl2; 200 mM phosphate in D2O, pH 7, 20°C, 2 mM hairpin
[19] = test system: template 8tct:primer + downstream-binding oligonucleotide (DNA, duplex, 3'-amino-2',3'-dideoxynucleoside at primer 3' end) CTGGATTTCCTCAGTCTCGTGCG/CGCACGA/ACTGAGGAAATCCA; test: inhibition of enzyme-free primer extension (MALDI-ToF kinetics); details: 400 mM NaCl, 80 mM MgCl2; 200 mM HEPES, pH 8.9, 20°C; competes with 3.6 mM dGMP-OAt; calculated from Kinh
[20] = test system: hairpin 3c (DNA, hairpin, hexaethylene glycol (HEG) loop linker between 6 and 7) CTCTGCGCA; test: 1H NMR titration; details: 400 mM NaCl, 80 mM MgCl2; 200 mM phosphate in D2O, pH 8.9, 20°C, 0.5 mM hairpin
[21] = test system: template 8ccc:primer + downstream-binding oligonucleotide (DNA, duplex, 3'-amino-2',3'-dideoxynucleoside at primer 3' end) CTGGATTTCCTCAGCCCCGTGCG/CGCACGG/GCTGAGGAAATCCA; test: inhibition of enzyme-free primer extension (MALDI-ToF kinetics); details: 400 mM NaCl, 80 mM MgCl2; 200 mM HEPES, pH 8.9, 20°C; competes with 3.6 mM dGMP-OAt; calculated from Kinh
[22] = test system: template 8ccc:primer, no downstream-binding oligonucleotide (DNA, duplex, 3'-amino-2',3'-dideoxynucleoside at primer 3' end) CTGGATTTCCTCAGCCCCGTGCG/CGCACGG; test: as above; details: 400 mM NaCl, 80 mM MgCl2; 200 mM HEPES, pH 8.9, 10°C; competes with 3.6 mM dGMP-OAt; calculated from Kinh
[23] = test system: template 8gcg:primer + downstream-binding oligonucleotide (DNA, duplex, 3'-amino-2',3'-dideoxynucleoside at primer 3' end) CTGGATTTCCTCAGGCGCGTGCG/CGCACGC/CCTGAGGAAATCCA; test: as above; details: 400 mM NaCl, 80 mM MgCl2; 200 mM HEPES, pH 8.9, 20°C; competes with 3.6 mM dGMP-OAt; calculated from Kinh
[24] = test system: hairpin 2c (DNA, hairpin, hexaethylene glycol (HEG) loop linker between 4 and 5) CTGCGCA; test: 1H NMR titration; details: 400 mM NaCl, 80 mM MgCl2; 200 mM phosphate in D2O, pH 8.9, 20°C, 0.5 mM hairpin
[25] = test system: template 8aca:primer + downstream-binding oligonucleotide (DNA, duplex, 3'-amino-2',3'-dideoxynucleoside at primer 3' end) CTGGATTTCCTCAGACACGTGCG/CGCACGT/TCTGAGGAAATCCA; test: inhibition of enzyme-free primer extension (MALDI-ToF kinetics); details: 400 mM NaCl, 80 mM MgCl2; 200 mM HEPES, pH 8.9, 20°C; competes with 3.6 mM dGMP-OAt; calculated from Kinh
[26] = test system: template 8tct:primer, no downstream-binding oligonucleotide (DNA, duplex, 3'-amino-2',3'-dideoxynucleoside at primer 3' end) CTGGATTTCCTCAGTCTCGTGCG/CGCACGA; test: as above; details: 400 mM NaCl, 80 mM MgCl2; 200 mM HEPES, pH 8.9, 20°C; competes with 3.6 mM dGMP-OAt; calculated from Kinh
[27] = test system: template 8ata:primer + downstream-binding oligonucleotide (DNA, duplex, 3'-amino-2',3'-dideoxynucleoside at primer 3' end) CTGGATTTCCTCAGATACGTGCG/CGCACGT/TCTGAGGAAATCCA; test: as above; details: 400 mM NaCl, 80 mM MgCl2; 200 mM HEPES, pH 8.9, 20°C; competes with 3.6 mM dAMP-OAt; calculated from Kinh
[28] = test system: template 8ctc:primer, no downstream-binding oligonucleotide (DNA, duplex, 3'-amino-2',3'-dideoxynucleoside at primer 3' end) CTGGATTTCCTCAGCTCCGTGCG/CGCACGG; test: as above; details: 400 mM NaCl, 80 mM MgCl2; 200 mM HEPES, pH 8.9, 10°C; competes with 3.6 mM dAMP-OAt; calculated from Kinh
[29] = test system: template 8gtg:primer + downstream-binding oligonucleotide (DNA, duplex, 3'-amino-2',3'-dideoxynucleoside at primer 3' end) CTGGATTTCCTCAGGTGCGTGCG/CGCACGC/CCTGAGGAAATCCA; test: as above; details: 400 mM NaCl, 80 mM MgCl2; 200 mM HEPES, pH 8.9, 20°C; competes with 3.6 mM dAMP-OAt; calculated from Kinh
[30] = test system: template 8ttt:primer + downstream-binding oligonucleotide (DNA, duplex, 3'-amino-2',3'-dideoxynucleoside at primer 3' end) CTGGATTTCCTCAGTTTCGTGCG/CGCACGA/ACTGAGGAAATCCA; test: as above; details: 400 mM NaCl, 80 mM MgCl2; 200 mM HEPES, pH 8.9, 20°C; competes with 3.6 mM dAMP-OAt; calculated from Kinh
[31] = test system: template 8ctc:primer + downstream-binding oligonucleotide (DNA, duplex, 3'-amino-2',3'-dideoxynucleoside at primer 3' end) CTGGATTTCCTCAGCTCCGTGCG/CGCACGG/GCTGAGGAAATCCA; test: as above; details: 400 mM NaCl, 80 mM MgCl2; 200 mM HEPES, pH 8.9, 20°C; competes with 3.6 mM dAMP-OAt; calculated from Kinh
[32] = test system: template 8ttt:primer, no downstream-binding oligonucleotide (DNA, duplex, 3'-amino-2',3'-dideoxynucleoside at primer 3' end) CTGGATTTCCTCAGTTTCGTGCG/CGCACGA; test: as above; details: 400 mM NaCl, 80 mM MgCl2; 200 mM HEPES, pH 8.9, 20°C; competes with 3.6 mM dAMP-OAt; calculated from Kinh

Cc1cn([C@H]2C[C@H](O)[C@@H](COP(=O)(O)O)O2)c(=O)[nH]c1=O
Kd [1]: 77 mM | Kd [2]: 200 mM | Kd [3]: 261 ± 47 mM | Kd [4]: 284 ± 44 mM | Kd [5]: 144 mM | Kd [6]: 83 mM | Kd [7]: 59 mM | Kd [8]: 241 ± 12 mM | Kd [9]: 113 mM

Nc1ccn([C@H]2C[C@H](O)[C@@H](COP(=O)(O)O)O2)c(=O)n1
Kd [10]: 5 mM | Kd [11]: 40 mM | Kd [12]: 18 mM | Kd [13]: 30 mM | Kd [14]: 19 mM | Kd [15]: 15 mM | Kd [16]: 6 mM | Kd ([17]; no saturation up to 1 M dCMP): > ≥2000 mM

Nc1nc2c(ncn2[C@@H]2O[C@H](COP(=O)(O)O)[C@@H](O)[C@H]2O)c(=O)[nH]1
Kd [18]: 14 mM

Nc1nc2c(ncn2[C@H]2C[C@H](O)[C@@H](COP(=O)(O)O)O2)c(=O)[nH]1
Kd [19]: 2 mM | Kd [20]: 16 mM | Kd [21]: 7 mM | Kd [22]: 5 mM | Kd [23]: 10 mM | Kd [24]: 9.9 ± 0.9 mM | Kd [25]: 5 mM | Kd [26]: 15 mM | Kd [17]: 100 mM

Nc1ncnc2c1ncn2[C@H]1C[C@H](O)[C@@H](COP(=O)(O)O)O1
Kd [27]: 5 mM | Kd [28]: 7 mM | Kd [29]: 5 mM | Kd [30]: 5 mM | Kd [31]: 7 mM | Kd [32]: 17 mM | Kd [17]: 38 mM
